Laboratory results: US5200343A, “Method for microbial dehalogenation of haloaliphatic compounds using a sulfate reducing bacteria, desulfomonile tiedjei” (Board of Trustees operating Michigan State University, priority 1991, dated 1993)
Like-named read-outs stand apart in the source and are kept apart here.

What was measured:
[1] = test system: Desulfomonile tiedjei cells; assay: 3-chlorobenzoate dechlorination by starved stationary phase induced cells with or without pyruvate (Table 3); assay type: cell-based
Protocol: Cultures were grown using strict anaerobic technique in a synthetic minimal medium amended with vitamins (DeWeerd, et al, Arch. of Microbiol. 154, 23-30 (1990)), pyruvate at 20 mM, and reduced with 1 mM cysteine and 0.1 mM Na2 S2 O4. The concentration of nicotinamide and 1,4-naphthoquinone were 500 μgl^-1 and 200 μgl^-1, respectively. Thiamine, hemin and lipoic acid were used at 50 μg/liter. To induce 3-chlorobenzoate dechlorination activity, 3-fluorobenzoate was added to 0.1 mM. The complete medium was inoculated with a 1% transfer from homologous medium (without fluorobenzoate). […]
Cultures were harvested by centrifugation and resuspended in 20 to 40% of the initial volume in a cold anaerobic assay buffer normally consisting of 50 mM NaCl, 10 mM sodium pyruvate, 10 mM HEPES (N-2[hydroxyethylP]piperazine-N'-[2-ethanesulfonic acid], hemisodium salt Sigma);, 0.00001% resazurin and reduced with 1 mM cysteine-HCl and 1 mM titanium (III) citrate. […] The assays were terminated at the indicated times by transferring the serum bottles to an ice water bath, where they were stored until analyzed. Protein concentrations were determined by a modification of the Lowry method (Hanson, R. S. and J. A. Phillips, In P. Gerhardt (ed.) Manual of methods for general microbiology. American Society for Microbiology, Washington, D. C. p. 328-364 (1981)). […]

[2] = test system: 3-Chlorobenzoate Dechlorination Activity; assay: Induction of 3-chlorobenzoate dechlorination activity by growth with 3-chlorobenzoate, analogues, or chloro- and iodobenzoates (Tables 4, 5); assay type: cell-based, Desulfomonile tiedjei
Protocol: Table 4. Cultures were grown in the presence of 3-chlorobenzoate or a 3-chlorobenzoate analogue substituted at the 1- or 3- position with the indicated functional groups. After several generations the culture were concentrated, washed and resuspended in anaerobic buffered salts containing 1 mM 3-chlorobenzoate and 10 mM pyruvate (as electron donor). […] After two hours samples were taken for benzoate analysis by HPLC. Values presented are the average of duplicate or triplicate cultures ± sample standard deviation.
Table 5. Chloro- and iodobenzoates were tested as inducers of 3-chlorobenzoate dehalogenation activity as described in the legend to Table 4. All compounds were initially at 500 μM; the 3-halo compounds were amended during growth as they were dehalogenated. Values presented are the average of duplicate or triplicate cultures± sample standard deviation.

[3] = test system: Desulfomonile tiedjei cells; assay: PCE and TCE dechlorination by resuspended cells induced with 3-fluorobenzoate versus non-induced cells (Table 1, FIG. 1); assay type: cell-based; conditions: for Mole % recovered, PCE / Mole % recovered, TCE / Mole % recovered, cis-DCE / Total Cl Removed: 2 μg/ml substrate, 37° C., 2 hr; for Mole % recovered, PCE / Mole % recovered, TCE / Mole % recovered, cis-DCE: average of duplicate vials; for Total Cl Removed: calculated from input concentration and Mole % recovered
Protocol: (§1) Cultures were grown using strict anaerobic technique in a synthetic minimal medium amended with vitamins (DeWeerd, et al, Arch. of Microbiol. 154, 23-30 (1990)), pyruvate at 20 mM, and reduced with 1 mM cysteine and 0.1 mM Na2 S2 O4. The concentration of nicotinamide and 1,4-naphthoquinone were 500 μgl^-1 and 200 μgl^-1, respectively. Thiamine, hemin and lipoic acid were used at 50 μg/liter. To induce 3-chlorobenzoate dechlorination activity, 3-fluorobenzoate was added to 0.1 mM. The complete medium was inoculated with a 1% transfer from homologous medium (without fluorobenzoate). Cultures were grown at 37° C. in the dark for about 14 days for fresh cells or 28 days for starved stationary phase cells.
(§2) Cultures were harvested by centrifugation and resuspended in 20 to 40% of the initial volume in a cold anaerobic assay buffer normally consisting of 50 mM NaCl, 10 mM sodium pyruvate, 10 mM HEPES (N-2[hydroxyethylP]piperazine-N'-[2-ethanesulfonic acid], hemisodium salt Sigma);, 0.00001% resazurin and reduced with 1 mM cysteine-HCl and 1 mM titanium (III) citrate. Resuspended cells were used to completely fill N2 sparged 10 ml serum bottles after which chlorinated ethylenes were added from a 0.5 or 1 mg/ml stock in methanol for PCE and TCE respectively. The vials were immediately sealed with Teflon lined rubber septa and aluminum crimp seals, leaving no headspace. The assays were commenced by transferring the serum bottles to a 37° C. water bath. The assays were terminated at the indicated times by transferring the serum bottles to an ice water bath, where they were stored until analyzed. Protein concentrations were determined by a modification of the Lowry method (Hanson, R. S. and J. A. Phillips, In P. Gerhardt (ed.) Manual of methods for general microbiology. American Society for Microbiology, Washington, D. C. p. 328-364 (1981)).
(§3) Chlorinated ethylenes were monitored with a Tekmar purge and trap unit (model 4000) connected to a Hewlett-Packard GC (Sunnyville, Calif.) equipped with an HP-5 cappillary column (30 m×0.53 mm×2.6 μm film thickness) and flame ionization detector. Samples (5 ml) were purged onto Tenax TA (Supelco, Bellefonte, Pa.) adsorbent with helium (30 ml/min for 16 min.), desorbed (180° C. for 4 min.), and separated using helium as a carrier at 6 ml/min. The temperature program was 30° C. for 8 min, increasing to 200° C. at 4° C./min and followed by an isothermal period of 5 min. The injection and detector temperatures were 220° C. and 300° C., respectively. PCE and its dechlorinated products were identified by comparison with authentic standards.
To further examine the transformation of both PCE and TCE and to determine if dechlorination of TCE also requires induction, a similar experiment was conducted to measure the initial transformation rates of PCE and TCE (Table 1.). […] The extent of transformation of PCE to TCE ([…] in 2H) was considerably faster than the rate of transformation of TCE to DCE ([…] in 2h), as expected from the redox potentials of these reactions (Vogel, T. M., et al., Environ. Sci. Technol. 21:722-736 (1987)) and results from mixed culture systems (Bouwer, E. J., and P. L. McCarty, Appl. Environ. Microbiol. 45:1286-1294 (1983)). The rate of transformation of PCE and TCE were much greater for the induced cultures than for the non-induced cultures.
^a suspensions were amended with PCE or TCE to a final concentration
of 2 μg/ml and incubated at 37° C. for 2 hr. Suspensions of
induced and uninduced cells contained 149 and 153 μg protein per ml
^b Data are presented as the average of duplicate vials with the
sample standard deviation in parenthesis.
^c Calculated from the input concentration of chlorinated ethylenes
and the Mole % of recovered material.

[4] = test system: Desulfomonile tiedjei cells; assay: Effect of different medium reductants and sterilant on PCE dechlorination by induced cells (Table 2); assay type: cell-based; conditions: PCE 1.66 μg/ml, 37° C., 2 hours
Protocol: The concentration of nicotinamide and 1,4-naphthoquinone were 500 μgl^-1 and 200 μgl^-1, respectively. Thiamine, hemin and lipoic acid were used at 50 μg/liter. To induce 3-chlorobenzoate dechlorination activity, 3-fluorobenzoate was added to 0.1 mM. The complete medium was inoculated with a 1% transfer from homologous medium (without fluorobenzoate). Cultures were grown at 37° C. in the dark for about 14 days for fresh cells or 28 days for starved stationary phase cells.
as §2, with “analyzed.” for “analyzed. Protein concentrations were determined by a modification of the Lowry method (Hanson, R. S. and J. A. Phillips, In P. Gerhardt (ed.) Manual of methods for general microbiology. American Society for Microbiology, Washington, D. C. p. 328-364 (1981)).”
as §3
Data are the average of duplicate vials and […]

[5] = test system: Desulfomonile tiedjei cells; assay: PCE dechlorination by starved stationary phase induced cells with or without pyruvate (Table 3); assay type: cell-based; conditions: for Mole % recovered, PCE / Mole % recovered, TCE / Mole % recovered, cis-DCE / Mole % recovered, trans-DCE / Total Cl Removed: PCE 1.66 μg/ml, 37° C., 2 hours
Protocol: as §1, §2, §3
^a Starved stationary phase induced cultures were resuspended at a
concentration of 521 μg protein per ml in buffer without pyruvate,
amended with PCE to a final concentration of 1.66 μg/ml and incubated
at 37° C. for 2 hours. Data are the average of duplicate vials and
^b 0.1 mMole sodium pyruvate was added to duplicate vials before
addition of cell suspensions to give a final concentration of ca. 10 mM

[6] = test system: Desulfomonile tiedjei; conditions: cited from earlier work

O=C(O)c1cccc(Cl)c1 [3-chlorobenzoate]
3-chlorobenzoate dechlorination in absence of pyruvate relative to presence of pyruvate [1]: about 12%
Induction Activity (3-chlorobenzoate dechlorination activity) ([2]; Table 4, inducers at 500 μM except 3-formylbenzoate 100 μM and 3-chlorobenzoate (amended at intervals), assay 1 mM 3-chlorobenzoate, two hours): 672 ± 8 nMol/hr/mg protein
Induction Activity (3-chlorobenzoate dechlorination activity) ([2]; Table 5, inducers initially 500 μM, 3-halo compounds amended during growth): 672 ± 8 nMol/hr/mg protein

ClC(Cl)=C(Cl)Cl [PCE, tetrachloroethylene]
product formation from PCE or TCE ([3]; Only cultures pre-induced with 3-fluorobenzoate): measurable product formation
transformation of PCE to TCE and cis-DCE (FIG. 1) ([3]; cells grown with 0.1 mM 3-fluorobenzoate): Rapid transformation
Mole % recovered, PCE ([3]; induced (+)): 45.7 Mole %
Mole % recovered, TCE ([3]; induced (+)): 54.3 Mole %
Mole % recovered, cis-DCE ([3]; induced (+)): 0.0 Mole %
Total Cl Removed ([3]; induced (+)): 43.9 μmol/g prot. in 2 h
formation of trans-DCE from PCE ([3]; induced cells, longer time course): formation of small amounts of trans-DCE
Mole % recovered, PCE ([3]; non-induced (-)): 100.0 Mole %
Mole % recovered, TCE ([3]; non-induced (-)): 0.0 Mole %
Mole % recovered, cis-DCE ([3]; non-induced (-)): 0.0 Mole %
Total Cl Removed ([3]; non-induced (-)): 0.0 μmol/g prot. in 2 h
extent of transformation of PCE to TCE ([3]; pre-induced with 3-fluorobenzoate): 43.8 mol g protein ^-1 in 2H
dechlorination of PCE (FIG. 1) ([3]; uninduced cells): no dechlorination was detected
Mole % recovered, PCE ([4]; Formaldehyde + (0.2%)): 95.0 Mole %
Mole % recovered, TCE ([4]; Formaldehyde + (0.2%)): 5.0 Mole %
Mole % recovered, cis-DCE ([4]; Formaldehyde + (0.2%)): 0.0 Mole %
Mole % recovered, trans-DCE ([4]; Formaldehyde + (0.2%)): 0.0 Mole %
Total Cl Removed ([4]; Formaldehyde + (0.2%)): 1.0 μmol/g prot. in 2 h
Mole % recovered, PCE ([4]; Formaldehyde -): 0.0 Mole %
Mole % recovered, TCE ([4]; Formaldehyde -): 26.4 Mole %
Mole % recovered, cis-DCE ([4]; Formaldehyde -): 69.4 Mole %
Mole % recovered, trans-DCE ([4]; Formaldehyde -): 4.2 Mole %
Total Cl Removed ([4]; Formaldehyde -): 34.1 μmol/g prot. in 2 h
Mole % recovered, PCE ([4]; reductant Na2 S (1 mM)): 6.3 Mole %
Mole % recovered, TCE ([4]; reductant Na2 S (1 mM)): 18.6 Mole %
Mole % recovered, cis-DCE ([4]; reductant Na2 S (1 mM)): 70.7 Mole %
Mole % recovered, trans-DCE ([4]; reductant Na2 S (1 mM)): 4.4 Mole %
Total Cl Removed ([4]; reductant Na2 S (1 mM)): 45.4 μmol/g prot. in 2 h
Mole % recovered, PCE ([4]; reductant TiCit): 0.0 Mole %
Mole % recovered, TCE ([4]; reductant TiCit): 9.4 Mole %
Mole % recovered, cis-DCE ([4]; reductant TiCit): 85.8 Mole %
Mole % recovered, trans-DCE ([4]; reductant TiCit): 4.7 Mole %
Total Cl Removed ([4]; reductant TiCit): 50.0 μmol/g prot. in 2 h
Mole % recovered, PCE ([5]; pyruvate + (ca. 10 mM)): 2.1 Mole %
Mole % recovered, TCE ([5]; pyruvate + (ca. 10 mM)): 44.1 Mole %
Mole % recovered, cis-DCE ([5]; pyruvate + (ca. 10 mM)): 50.3 Mole %
Mole % recovered, trans-DCE ([5]; pyruvate + (ca. 10 mM)): 3.5 Mole %
Total Cl Removed ([5]; pyruvate + (ca. 10 mM)): 29.1 (0.8) μmol/g prot. in 2 h
Mole % recovered, PCE ([5]; pyruvate -): 78.6 Mole %
Mole % recovered, TCE ([5]; pyruvate -): 21.4 Mole %
Mole % recovered, cis-DCE ([5]; pyruvate -): 0.0 Mole %
Mole % recovered, trans-DCE ([5]; pyruvate -): 0.0 Mole %
Total Cl Removed ([5]; pyruvate -): 4.1 (0.3) μmol/g prot. in 2 h
PCE dechlorination in absence of pyruvate relative to presence of pyruvate ([5]; starved stationary phase cells): about 14%
Dechlorination of PCE by D. tiedjei ([6]; Fathepure et al.): 2.34 μmolg protein^-1 day^-1
Dechlorination of PCE by D. tiedjei ([6]; Suflita et al.): 4 μmol/l in five (5) months
